According to patent US20260240763A1, “Inhalable Serotonin Receptor Agonist Formulations” (Pinata Holdings Inc., priority 2022, published 2026):

Tested on: generalized anxiety and/or post-traumatic stress disorder (PTSD)
Experiment: Inhaled dry powder given to subjects for generalized anxiety and/or PTSD
Format: in vivo, human
Details: encapsulated by HPMCAS, inhaler
Protocol: Three male subjects and one subject were administered doses of 5 mg, 10 mg, and 15 mg of psilocybin. Each individual dosage level was administered about three weeks apart for the treatment of generalized anxiety and/or post-traumatic stress disorder (PTSD). In a separate experiment, the subjects were administered doses of 1 mg, 5 mg, and 10 mg of 4-AoC-DMT (O-Acetylpsilocin). Each individual dosage level was administered about three weeks apart for the treatment of generalized anxiety and/or post-traumatic stress disorder (PTSD). The dry powder pharmaceutical compositions comprised psilocybin or 4-AoC-DMT encapsulated by HPMCAS using the methods described herein (e.g., spay drying). The encapsulated dry powder was administered with an inhaler.

Row | Structure (SMILES) | adverse effects noted (4-AoC-DMT 1 mg and 5 mg, four subjects) | adverse effects noted (4-AoC-DMT 10 mg, indicated by 3 male patients and 1 patient) | effect on anxiety in the subjects (doses of 1 mg and 5 mg of 4-AoC-DMT, each about three weeks apart, three male subjects and one subject) | adverse effects noted (psilocybin 5 mg, 10 mg and 15 mg, four subjects)
1 | CC(=O)Oc1cccc2[nH]cc(CCN(C)C)c12 [4-AoC-DMT, 4-Acetoxy-N,N-dimethyltryptamine] | No adverse effects | too much | reduced anxiety | 
2 | CN(C)CCc1c[nH]c2cccc(OP(=O)(O)O)c12 [psilocybin, 4-phosphoryloxy-N,N-dimethyltryptamine] |  |  |  | No adverse effects
